From US4486586A, “Cephalosporin derivatives” (Bristol-Myers Company, priority 1983, dated 1984)
≈ marks a conversion by molar mass, not a printed value.

Columns and labels:
[1] = system: Cephalothinsensitive E. coli, Kl. pneumoniae and Pr. mirabilis; assay: MIC, two-fold serial agar dilution in Mueller-Hinton agar, group (G-)-Ia; assay type: cell-based; details: cephalothin-sensitive E. coli, 5 strains, read-out: Geometric Mean of MIC, (G-)-Ia
Procedure: (§1) In the primary evaluation of the compounds of this invention, the Minimum Inhibitory Concentrations (MIC's) of the compounds were determined by the two-fold serial agar dilution method in Mueller-Hinton agar against 32 strains of test organisms in six groups.
(G-)Ia: Cephalothinsensitive E. coli (2 strains), Kl. pneumoniae (1
strain) and Pr. mirabilis (2 strains)

Ps. aeruginosa = assay: MIC, two-fold serial agar dilution in Mueller-Hinton agar, group (G-)-III; assay type: cell-based; details: Pseudomonas aeruginosa, 7 strains, read-out: Geometric Mean of MIC, (G-)-III
Procedure: as §1
(G-)III: Ps. aeruginosa (7 strains)

[2] = system: Penicillinsensitive S. aureus; assay: MIC, two-fold serial agar dilution in Mueller-Hinton agar, group (G+)-Ia; assay type: cell-based; details: Staphylococcus aureus, penicillin-sensitive S. aureus, 5 strains, read-out: Geometric Mean of MIC, (G+)-Ia
Procedure: as §1

[3] = system: Penicillinresistant S. aureus; assay: MIC, two-fold serial agar dilution in Mueller-Hinton agar, group (G+)-Ib; assay type: cell-based; details: Staphylococcus aureus, penicillin-resistant S. aureus, 5 strains, read-out: Geometric Mean of MIC, (G+)-Ib
Procedure: as §1
(G+)Ib: Penicillinresistant S. aureus (5

[4] = system: M. morganii, Ent. cloacae and Ser. marcescens; assay: MIC, two-fold serial agar dilution in Mueller-Hinton agar, group (G-)-II; assay type: cell-based; details: 5 strains, read-out: Geometric Mean of MIC, (G-)-II
Procedure: as §1
(G-)II: M. morganii (1 strain), Ent. cloacae (2 strains) andSer.

[5] = system: Cephalothinresistant E. coli and Kl. pneumoniae; assay: MIC, two-fold serial agar dilution in Mueller-Hinton agar, group (G-)-Ib; assay type: cell-based, E. coli (3 strains) and Kl. pneumoniae (3 strains); details: read-out: Geometric Mean of MIC, (G-)-Ib
Procedure: as §1
(G-)Ib: Cephalothinresistant E. coli (3 strains) and Kl. pneumoniae (3

SMILES | MIC [1] | MIC (Ps. aeruginosa) | MIC [2] | MIC [3] | MIC [4] | MIC [5]
CSc1scc[n+]1C/C=C/C1=C(C(=O)[O-])N2C(=O)C(NC(=O)/C(=N\OC(C)(C)C(=O)O)c3csc(N)n3)[C@H]2SC1 (stereo partly drawn) [Compound I-4G, 7-[(Z)-2-(2-Aminothiazol-4-yl)-2-(2-carboxy-2-propoxyimino)acetamido]-3-[(E)-3-(2-methylthio-3-thiazolio)-1-propen-1-yl]-3-cephem-4-carboxylate] | 0.021 µg/mL (≈ 0.0336 µM) | 3.5 µg/mL (≈ 5.6 µM) | 1.8 µg/mL (≈ 2.88 µM) | 5.4 µg/mL (≈ 8.64 µM) | 0.2 µg/mL (≈ 0.32 µM) | 0.22 µg/mL (≈ 0.352 µM)
CO/N=C(\C(=O)NC1C(=O)N2C(C(=O)[O-])=C(/C=C/C[N+]3(C)CC=CC3)CS[C@H]12)c1csc(N)n1 (stereo partly drawn) [Compound I-1F, 7-[(Z)-2-(2-Aminothiazol-4-yl)-2-methoxyiminoacetamido]-3-[(E)-3-(1-methyl-3-pyrrolinio)-1-propen-1-yl]-3-cephem-4-carboxylate] | 0.014 µg/mL (≈ 0.0277 µM) | 3.1 µg/mL (≈ 6.14 µM) | 0.15 µg/mL (≈ 0.297 µM) | 0.39 µg/mL (≈ 0.773 µM) | 0.1 µg/mL (≈ 0.198 µM) | 0.074 µg/mL (≈ 0.147 µM)
CO/N=C(\C(=O)NC1C(=O)N2C(C(=O)[O-])=C(/C=C/C[n+]3ccc(C(N)=O)cc3)CS[C@H]12)c1csc(N)n1 (stereo partly drawn) [Compound I-1J, 7-[(Z)-2-(2-Aminothiazol-4-yl)-2-methoxyiminoacetamido]-3-[(E)-3-(4-carbamoyl-1-pyridinio)-1-propen-1-yl]-3-cephem-4-carboxylate] | 0.016 µg/mL (≈ 0.0294 µM) | 5.7 µg/mL (≈ 10.5 µM) | 0.26 µg/mL (≈ 0.478 µM) | 0.61 µg/mL (≈ 1.12 µM) | 0.13 µg/mL (≈ 0.239 µM) | 0.11 µg/mL (≈ 0.202 µM)
CO/N=C(\C(=O)NC1C(=O)N2C(C(=O)[O-])=C(/C=C/C[n+]3ccsc3C)CS[C@H]12)c1csc(N)n1 (stereo partly drawn) [Compound I-1H, 7-[(Z)-2-(2-Aminothiazol-4-yl)-2-methoxyiminoacetamido]-3-[(E)-3-(2-methyl-3-thiazolio)-1-propen-1-yl]-3-cephem-4-carboxylate] | 0.0093 µg/mL (≈ 0.0179 µM) | 5.7 µg/mL (≈ 10.9 µM) | 0.1 µg/mL (≈ 0.192 µM) | 0.3 µg/mL (≈ 0.576 µM) | 0.074 µg/mL (≈ 0.142 µM) | 0.05 µg/mL (≈ 0.096 µM)
